{"source": "patent US8192925B2", "about": "“Polypeptides having antimicrobial activity and polynucleotides encoding same” (Novozymes Adenium Biotech A/S, priority 2004, dated 2012)", "assay_in_all_cases": "Microdilution MIC assay (NCCLS/CLSI guidelines)", "format_in_all_cases": "cell-based", "conditions_in_all_cases": "tested 0.06-32 μg/ml", "key": {"[1]": {"tested_on": "Enterococcus faecium, ATCC 49624", "protocol": "(§1) Purified Eurocin was evaluated for antimicrobial activity in a microdillution assay. The\n(§2) Minimal Inhibitory Concentration (MIC) was determined following the NCCLS/CLSI guidelines from CLSI (Clinical and Laboratory Standards Institute).\n(§3) Eurocin was tested at the following concentrations: 32; 16; 8; 4; 2; 1; 0.50; 0.25; 0.13; and 0.06 μg/ml."}, "[2]": {"tested_on": "Micrococcus luteus, ATCC 9341", "protocol": "as §1, §2, §3"}, "[3]": {"tested_on": "Staphylococcus aureus, ATCC 29213", "protocol": "as §1, §2, §3"}, "[4]": {"tested_on": "Staphylococcus carnosus, ATCC 51365", "protocol": "as §1, §2, §3"}, "[5]": {"tested_on": "Staphylococcus epidermidis, ATCC 12228", "protocol": "as §1, §2, §3"}, "[6]": {"tested_on": "Streptococcus pneumoniae, ATCC 49619", "protocol": "as §1, §2, §3"}, "[7]": {"tested_on": "Streptococcus pyogenes, ATCC 12344", "protocol": "as §1, §2, §3"}}, "data": [{"substance": "Eurocin: antimicrobial polypeptide shown as amino acids 1 to 42 of SEQ ID NO:2, from Eurotium amstelodami, expressed in Aspergillus oryzae (MHFTKVSTILFTIFAAGIMAAPTEGVREEAAPGQEVYPDEPP; listed as Eurotium amstelodami)", "values": [{"measurement": "MIC", "setting": "[1]", "result": 16, "unit": "µg/mL"}, {"measurement": "MIC", "setting": "[2]", "result": 0.5, "unit": "µg/mL"}, {"measurement": "MIC", "setting": "[3]", "result": 16, "unit": "µg/mL"}, {"measurement": "MIC", "setting": "[4]", "result": 8, "unit": "µg/mL"}, {"measurement": "MIC", "setting": "[5]", "result": 16, "unit": "µg/mL"}, {"measurement": "MIC", "setting": "[6]", "result": 0.25, "unit": "µg/mL"}, {"measurement": "MIC", "setting": "[7]", "result": 0.13, "unit": "µg/mL"}]}]}
